Assay results taken from US20220324815A1, “2-PHENOXY-PYRIMIDINE DERIVATIVES AS HERBICIDAL COMPOUNDS” (SYNGENTA CROP PROTECTION AG, priority 2019, published 2022).

What was measured:
Assay type in all cases: in vivo
Conditions in all cases: 250 g/ha unless otherwise stated, evaluated after 13 days, five-point scale
[1] = tested on: Amaranthus retoflexus (AMARE); assay: Test 1 glasshouse herbicide test, post-emergence application (Table B1)
Outline: (§1)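 Score is % phytotoxicity after 13 days, binned 1 (0–20%) to 5 (81–100%). Compound given at 250 g/ha unless stated, as acetone/water (50:50) spray with 0.5% Tween 20, one day post-sowing (pre-emergence) or after 8 days' growth (post-emergence); glasshouse at 24/16 °C day/night, 14 h light, 65% humidity.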

[2] = tested on: Echinochloa crus-galli (ECHCG); assay: as above
Outline: as §1

[3] = tested on: Ipomoea hederacea (IPOHE); assay: as above
Outline: as §1

Setaria faberi (SETFA) [4] = assay: as above
Outline: as §1

[5] = tested on: Amaranthus retoflexus (AMARE); assay: Test 1 glasshouse herbicide test, pre-emergence application (Table B2)
Outline: as §1

[6] = tested on: Echinochloa crus-galli (ECHCG); assay: as above
Outline: as §1

[7] = tested on: Ipomoea hederacea (IPOHE); assay: as above
Outline: as §1

Setaria faberi (SETFA) [8] = assay: as above
Outline: as §1

| SMILES | % phytotoxicity AMARE, post-emergence application [1] | % phytotoxicity ECHCG, post-emergence application [2] | % phytotoxicity IPOHE, post-emergence application [3] | % phytotoxicity SETFA, post-emergence application (Setaria faberi (SETFA) [4]) | % phytotoxicity AMARE, pre-emergence application [5] | % phytotoxicity ECHCG, pre-emergence application [6] | % phytotoxicity IPOHE, pre-emergence application [7] | % phytotoxicity SETFA, pre-emergence application (Setaria faberi (SETFA) [8]) |
| --- | --- | --- | --- | --- | --- | --- | --- | --- |
| N#Cc1cccc(Oc2ncc(Cl)cn2)c1S(=O)(=O)CCC(F)F [Compound A97] | 5 (5=81 to 100%) | 4 (4=61 to 80%) | 4 (4=61 to 80%) | 2 (2=21 to 40%) | 5 (5=81 to 100%) | 4 (4=61 to 80%) | 5 (5=81 to 100%) | 4 (4=61 to 80%) |
| N#Cc1cccc(Oc2ncc(Cl)cn2)c1[S+]([O-])CCC(F)F (stereo not shown) [Compound A98] | 5 (5=81 to 100%) | 4 (4=61 to 80%) | 4 (4=61 to 80%) | 4 (4=61 to 80%) | 5 (5=81 to 100%) | 5 (5=81 to 100%) | 5 (5=81 to 100%) | 5 (5=81 to 100%) |
| N#Cc1cccc(Oc2ncc(Cl)cn2)c1SCCC(F)F [Compound A99] | 5 (5=81 to 100%) | 5 (5=81 to 100%) | 4 (4=61 to 80%) | 4 (4=61 to 80%) | 5 (5=81 to 100%) | 5 (5=81 to 100%) | 5 (5=81 to 100%) | 5 (5=81 to 100%) |
| N#Cc1cccc(Oc2ncc(Cl)cn2)c1SCCCC(F)F [Compound A100] | 5 (5=81 to 100%) | 5 (5=81 to 100%) | 5 (5=81 to 100%) | 4 (4=61 to 80%) | 5 (5=81 to 100%) | 5 (5=81 to 100%) | 5 (5=81 to 100%) | 5 (5=81 to 100%) |
| N#Cc1cccc(Oc2ncc(Cl)cn2)c1[S+]([O-])CCCC(F)F (stereo not shown) [Compound A101] | 5 (5=81 to 100%) | 4 (4=61 to 80%) | 4 (4=61 to 80%) | 4 (4=61 to 80%) | 5 (5=81 to 100%) | 5 (5=81 to 100%) | 5 (5=81 to 100%) | 5 (5=81 to 100%) |
| N#Cc1cccc(Oc2ncc(Cl)cn2)c1S(=O)(=O)CCCC(F)F [Compound A102] | 5 (5=81 to 100%) | 4 (4=61 to 80%) | 4 (4=61 to 80%) | 4 (4=61 to 80%) | 5 (5=81 to 100%) | 5 (5=81 to 100%) | 5 (5=81 to 100%) | 5 (5=81 to 100%) |
| O=S(=O)(CCCC(F)F)c1c(Cl)cccc1Oc1ncc(Cl)cn1 [Compound A103] | 4 (4=61 to 80%) | 1 (1=0 to 20%) | 2 (2=21 to 40%) | 1 (1=0 to 20%) | 4 (4=61 to 80%) | 2 (2=21 to 40%) | 4 (4=61 to 80%) | 2 (2=21 to 40%) |
| [O-][S+](CCCC(F)F)c1c(Cl)cccc1Oc1ncc(Cl)cn1 (stereo not shown) [Compound A104] | 5 (5=81 to 100%) | 5 (5=81 to 100%) | 5 (5=81 to 100%) | 5 (5=81 to 100%) | 5 (5=81 to 100%) | 5 (5=81 to 100%) | 5 (5=81 to 100%) | 5 (5=81 to 100%) |
| FC(F)CCCSc1c(Cl)cccc1Oc1ncc(Cl)cn1 [Compound A105, 5-chloro-2-[3-chloro-2-(4,4-difluorobutylsulfanyl)phenoxy]pyrimidine] | 5 (5=81 to 100%) | 5 (5=81 to 100%) | 4 (4=61 to 80%) | 5 (5=81 to 100%) | 5 (5=81 to 100%) | 5 (5=81 to 100%) | 4 (4=61 to 80%) | 5 (5=81 to 100%) |
| N#Cc1cccc(Oc2ncc(Cl)cn2)c1SCCOC(F)(F)F [Compound A106] | 5 (5=81 to 100%) | 5 (5=81 to 100%) | 3 (3=41 to 60%) | 4 (4=61 to 80%) | 5 (5=81 to 100%) | 5 (5=81 to 100%) | 2 (2=21 to 40%) | 5 (5=81 to 100%) |
| N#Cc1cccc(Oc2ncc(Cl)cn2)c1SCCOCC(F)(F)F [Compound A107] | 5 (5=81 to 100%) | 5 (5=81 to 100%) | 2 (2=21 to 40%) | 4 (4=61 to 80%) | 5 (5=81 to 100%) | 5 (5=81 to 100%) | 3 (3=41 to 60%) | 5 (5=81 to 100%) |
| N#Cc1cccc(Oc2ncc(Cl)cn2)c1S(=O)(=O)CCOCC(F)(F)F [Compound A108] | 4 (4=61 to 80%) | 1 (1=0 to 20%) | 2 (2=21 to 40%) | 1 (1=0 to 20%) | 5 (5=81 to 100%) | 1 (1=0 to 20%) | 1 (1=0 to 20%) | 1 (1=0 to 20%) |
| COc1cnc(Oc2cccc(C#N)c2S(=O)(=O)CCCC(F)(F)F)nc1 [Compound A112] | 2 (2=21 to 40%) | 1 (1=0 to 20%) | 2 (2=21 to 40%) | 1 (1=0 to 20%) | 3 (3=41 to 60%) | 1 (1=0 to 20%) | 3 (3=41 to 60%) | 1 (1=0 to 20%) |
| COc1cnc(Oc2cccc(C#N)c2SCCCC(F)(F)F)nc1 [Compound A113] | 5 (5=81 to 100%) | 3 (3=41 to 60%) | 3 (3=41 to 60%) | 2 (2=21 to 40%) | 5 (5=81 to 100%) | 4 (4=61 to 80%) | 3 (3=41 to 60%) | 2 (2=21 to 40%) |
| Cc1cnc(Oc2cccc(C#N)c2SCCCC(F)(F)F)nc1 [Compound A114] | 3 (3=41 to 60%) | 4 (4=61 to 80%) | 4 (4=61 to 80%) | 3 (3=41 to 60%) | 5 (5=81 to 100%) | 4 (4=61 to 80%) | 4 (4=61 to 80%) | 4 (4=61 to 80%) |
| Cc1cnc(Oc2cccc(C#N)c2S(=O)(=O)CCCC(F)(F)F)nc1 [Compound A115] | 4 (4=61 to 80%) | 4 (4=61 to 80%) | 4 (4=61 to 80%) | 3 (3=41 to 60%) | 5 (5=81 to 100%) | 4 (4=61 to 80%) | 5 (5=81 to 100%) | 3 (3=41 to 60%) |
| N#Cc1cccc(Oc2ncc(Cl)cn2)c1SCCCOC(F)(F)F [Compound A116, 3-(5-chloropyrimidin-2-yl)oxy-2-[3-(trifluoromethoxy)propylsulfanyl]benzonitrile] | 5 (5=81 to 100%) | 4 (4=61 to 80%) | 4 (4=61 to 80%) | 4 (4=61 to 80%) | 5 (5=81 to 100%) | 5 (5=81 to 100%) | 5 (5=81 to 100%) | 5 (5=81 to 100%) |
